US20040266885A1, “Wood preservative compositions” (priority 2001, published 2004)
“And” between values parts separate entries of the source, which are not always exact repeats. Equal entries are not always repeated. “Also recorded” adds a separate entry of the source.

Test system: C. formosanus
Experiment: Laboratory termite test, modified ASTM 3345-74, soil/sand culture, NaOH carrier, blocks not leached; for Termite Attack Rating: key: Score 0: No attack; Score 1: Attempted attack; Score 2: Slight attack; Score 3: Average attack; Score 4: Strong attack
Type: in vivo
Conditions: for termite survival / mortality at the end of the test period / Tunneling Activity / Visible Mortality / prevention of termite attack / restriction of termite damage: 4 weeks; for prevention of termite attack / restriction of termite damage: all concentrations used (1-10%); for Mean Rating (termite attack): mean of 4 specimens; for Mean Rating (termite attack) / Termite Attack Rating: 4 weeks soil/sand culture; for Termite Attack Rating: single specimen; for repellent effect (soil covering of test specimens): specimens treated with 5, 7 and 10% solutions only partially soil covered
Method: A further experiment was undertaken according to the modified ASTM 3345-74 test detailed in Example 2 with the following 6 changes to the protocol:
1. The solutions tested were as follows:
2. The incubation substrate was a soil/sand mixture (1:1) to which had been added 75 ml of de-ionised water. This substrate was chosen as being more representative of the laboratory conditions under which the wild caught termites (C. formosanus) were maintained.
3. The treated timber samples were positioned on plastic mesh on top of the soil substrate. This method of placement is that used in European Standard EN 117 and is more representative of the feeding conditions of the wild caught termites maintained in the laboratory.
4. 250 termites were used in each incubation vessel.
5. The wood block specimens were not subjected to a leaching process.
6. Evidence of termite tunneling activity and mortality was determined at completion of the incubation period only (4 weeks) and no examinations were undertaken for surface activity.

Compound	termiticidal and termite repellent activity (conclusion)	termite survival / mortality at the end of the test period	Tunneling Activity (solution conc. 1%)	Visible Mortality (solution conc. 1%)	Tunneling Activity (solution conc. 3%)	Visible Mortality (solution conc. 3%)	Tunneling Activity (solution conc. 5%)	Visible Mortality (solution conc. 5%)	Tunneling Activity (solution conc. 7%)	Visible Mortality (solution conc. 7%)	Tunneling Activity (solution conc. 10%)	Visible Mortality (solution conc. 10%)	prevention of termite attack / restriction of termite damage	Mean Rating (termite attack) (solution conc. 1%)	Termite Attack Rating (solution conc. 1%)	Mean Rating (termite attack) (solution conc. 3%)	Termite Attack Rating (solution conc. 3%)	Mean Rating (termite attack) (solution conc. 5%)	Termite Attack Rating (solution conc. 5%)	Mean Rating (termite attack) (solution conc. 7%)	also measured
Oc1c(Br)cc(Cc2cc(Br)c(O)c(Br)c2)cc1Br [TBBF]	significant termiticidal and termite repellent activity	the majority of the termites were killed by the end of the test period	Yes	34-66%	Yes	34-66%	Yes	67-100%	Yes	67-100%	Yes	67-100%	significant attack was prevented by all concentrations; also recorded: a very significant effect in restricting termite damage	1.50	3 and 1	0.75	0 and 1	0.5	0 and 1	0.75	toxic value, lower (concentration at which the wood is no longer sufficiently protected) (mean loading, solution concentration 1%, not leached): 6.78 kg/m^3; toxic value, upper (lowest concentration which protects the wood) (mean loading, solution concentration 3% (TBBF) or 1%, not leached): 20.53 kg/m^3; Termite Attack Rating (solution conc. 7%): 1 and 0; Mean Rating (termite attack) (solution conc. 10%): 0.5; Termite Attack Rating (solution conc. 10%): 1 and 0; repellent effect (soil covering of test specimens): a repellent effect
O=S(=O)(c1cc(Br)c(O)c(Br)c1)c1cc(Br)c(O)c(Br)c1 [TBBS]	significant termiticidal and termite repellent activity	significant termite mortality by the end of the test period	Yes	67-100%	Yes	34-66% and 67-100%	Yes	67-100%	Yes	67-100% and 100%	Yes	34-66% and 67-100%	significant attack was prevented by all concentrations; also recorded: a very significant effect in restricting termite damage	1.00	1	0.5	1 and 0	1.00	1	0.75	Termite Attack Rating (solution conc. 7%): 1 and 0; Mean Rating (termite attack) (solution conc. 10%): 0.25; Termite Attack Rating (solution conc. 10%): 0 and 1; repellent effect (soil covering of test specimens): a repellent effect was noted
